In PMC5271319, “Identification and Characterization of a 25 kDa Protein That Is Indispensable for the Efficient Saccharification of Eisenia bicyclis in the Digestive Fluid of Aplysia kurodai” (PLoS ONE, 2017):

Target: T1, EHEP (Eisenia hydrolysis enhancing protein, 25 kDa) (Aplysia kurodai, UniProt A0A1B4XTR1)
T1 construct: native protein purified from digestive fluid; signal peptide 1-16 predicted to be removed; 25 kDa monomer
T1 sequence (A0A1B4XTR1 17-229): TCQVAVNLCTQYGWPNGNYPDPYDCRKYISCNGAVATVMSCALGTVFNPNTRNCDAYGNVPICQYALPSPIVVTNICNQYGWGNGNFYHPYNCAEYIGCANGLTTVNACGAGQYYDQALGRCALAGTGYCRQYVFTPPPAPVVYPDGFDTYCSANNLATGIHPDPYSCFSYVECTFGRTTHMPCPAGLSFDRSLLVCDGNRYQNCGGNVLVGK
Experiment: co-precipitation, SDS-PAGE of precipitate
Format: binding
Conditions: 50 and 100 μg in 0.1 ml; 50 mM acetate pH 5.5, 0.1 M NaCl, 10 mM CaCl2; 25 °C, 90 min

SMILES	co-precipitation, SDS-PAGE of precipitate
Oc1cc(O)cc(O)c1 [phloroglucinol, 1,3,5-trihydroxybenzene]	EHEP was precipitated by phloroglucinol and gallic acid
O=C(O)c1cc(O)c(O)c(O)c1 [gallic acid]	EHEP was precipitated by phloroglucinol and gallic acid
